Tests used:
Format in all cases: cell-based, human
[1] = tested on: Donor 4 COP T-Cell Lines; assay: ATP proliferation assay (CellTiter Glo), Donor 4 COP T-cell lines, incl. reactivity to non-canonical GA peptides; conditions: 205-1H11; proliferation <2 times no antigen control
[2] = tested on: Donor 3 GMA T-Cell Lines; assay: ATP proliferation assay (CellTiter Glo), Donor 3 GMA T-cell lines, incl. reactivity to non-canonical GA peptides; conditions: for Non-Canonical Peptide Non-Reactivity: proliferation <2 times no antigen control
[3] = tested on: Donor 3 COP T-Cell Lines; assay: ATP proliferation assay (CellTiter Glo), Donor 3 COP T-cell lines, incl. reactivity to non-canonical GA peptides; conditions: for Non-Canonical Peptide Non-Reactivity: proliferation <2 times no antigen control

Substance: poly (Glu-Tyr; 1:1) [GT 11]
- Non-Canonical Peptide Non-Reactivity [1]: GT 11
- Non-Canonical Peptide Non-Reactivity ([2]; 165-B5G): GT 11
- Non-Canonical Peptide Non-Reactivity ([2]; 165-C4G): GT 11
- Non-Canonical Peptide Non-Reactivity ([2]; 165-C5G): GT 11
- Non-Canonical Peptide Non-Reactivity ([2]; 165-E7G): GT 11
- Non-Canonical Peptide Non-Reactivity ([2]; 165-E9G): GT 11
- Non-Canonical Peptide Non-Reactivity ([2]; 165-F5G): GT 11
- Non-Canonical Peptide Non-Reactivity ([2]; 165-F8G): GT 11
- Non-Canonical Peptide Non-Reactivity ([2]; 165-F10G): GT 11
- Non-Canonical Peptide Non-Reactivity ([2]; 165-H11G): GT 11
- Proliferation (luminescent ATP assay), Mean ([2]; T-cell line 165-B5G, 1.25 μg/mL antigen, Day 55 of culturing, No Antigen Value 846): 2167 RLU
- Proliferation (luminescent ATP assay), Mean ([2]; T-cell line 165-B5G, 2.5 μg/mL antigen, Day 55 of culturing, No Antigen Value 846): 1957 RLU
- Proliferation (luminescent ATP assay), Mean ([2]; T-cell line 165-B5G, 5 μg/mL antigen, Day 55 of culturing, No Antigen Value 846): 1353 RLU
- Proliferation (luminescent ATP assay), Mean ([2]; T-cell line 165-B5G, 10 μg/mL antigen, Day 55 of culturing, No Antigen Value 846): 1191 RLU
- Proliferation (luminescent ATP assay), Mean ([2]; T-cell line 165-C5G, 1.25 μg/mL antigen, autologous B-LCL): 523 RLU
- Proliferation (luminescent ATP assay), Mean ([2]; T-cell line 165-C5G, 2.5 μg/mL antigen, autologous B-LCL): 620 RLU
- Proliferation (luminescent ATP assay), Mean ([2]; T-cell line 165-C5G, 5 μg/mL antigen, autologous B-LCL): 428 RLU
- Proliferation (luminescent ATP assay), Mean ([2]; T-cell line 165-C5G, 10 μg/mL antigen, autologous B-LCL): 471 RLU
- Proliferation (luminescent ATP assay), Mean ([2]; T-cell line 165-E7G, 1.25 μg/mL antigen, autologous B-LCL, Day 55): 2821 RLU
- Proliferation (luminescent ATP assay), Mean ([2]; T-cell line 165-E7G, 2.5 μg/mL antigen, autologous B-LCL, Day 55): 2914 RLU
- Proliferation (luminescent ATP assay), Mean ([2]; T-cell line 165-E7G, 5 μg/mL antigen, autologous B-LCL, Day 55): 2332 RLU
- Proliferation (luminescent ATP assay), Mean ([2]; T-cell line 165-E7G, 10 μg/mL antigen, autologous B-LCL, Day 55): 1848 RLU
- Proliferation (luminescent ATP assay), Mean ([2]; T-cell line 165-E9G, 1.25 μg/mL antigen, autologous B-LCL): 110 RLU
- Proliferation (luminescent ATP assay), Mean ([2]; T-cell line 165-E9G, 2.5 μg/mL antigen, autologous B-LCL): 119 RLU
- Proliferation (luminescent ATP assay), Mean ([2]; T-cell line 165-E9G, 5 μg/mL antigen, autologous B-LCL): 103 RLU
- Proliferation (luminescent ATP assay), Mean ([2]; T-cell line 165-E9G, 10 μg/mL antigen, autologous B-LCL): 96 RLU
- Proliferation (luminescent ATP assay), Mean ([2]; T-cell line 165-F5G, 1.25 μg/mL antigen, autologous B-LCL): 160 RLU
- Proliferation (luminescent ATP assay), Mean ([2]; T-cell line 165-F5G, 2.5 μg/mL antigen, autologous B-LCL): 124 RLU
- Proliferation (luminescent ATP assay), Mean ([2]; T-cell line 165-F5G, 5 μg/mL antigen, autologous B-LCL): 124 RLU
- Proliferation (luminescent ATP assay), Mean ([2]; T-cell line 165-F5G, 10 μg/mL antigen, autologous B-LCL): 158 RLU
- Proliferation (luminescent ATP assay), Mean ([2]; T-cell line 165-F10G, 1.25 μg/mL antigen, autologous B-LCL): 1388 RLU
- Proliferation (luminescent ATP assay), Mean ([2]; T-cell line 165-F10G, 2.5 μg/mL antigen, autologous B-LCL): 1506 RLU
- Proliferation (luminescent ATP assay), Mean ([2]; T-cell line 165-F10G, 5 μg/mL antigen, autologous B-LCL): 1598 RLU
- Proliferation (luminescent ATP assay), Mean ([2]; T-cell line 165-F10G, 10 μg/mL antigen, autologous B-LCL): 1294 RLU
- Proliferation (luminescent ATP assay), Mean ([2]; T-cell line 165-H11G, 1.25 μg/mL antigen, autologous B-LCL): 17 RLU
- Proliferation (luminescent ATP assay), Mean ([2]; T-cell line 165-H11G, 2.5 μg/mL antigen, autologous B-LCL): 354 RLU
- Proliferation (luminescent ATP assay), Mean ([2]; T-cell line 165-H11G, 5 μg/mL antigen, autologous B-LCL): 352 RLU
- Proliferation (luminescent ATP assay), Mean ([2]; T-cell line 165-H11G, 10 μg/mL antigen, autologous B-LCL): 308 RLU
- Non-Canonical Peptide Non-Reactivity ([3]; 165-B6C): GT 11
- Non-Canonical Peptide Non-Reactivity ([3]; 165-B10C): GT 11
- Non-Canonical Peptide Non-Reactivity ([3]; 165-C4C): GT 11
- Non-Canonical Peptide Non-Reactivity ([3]; 165-C7C): GT 11
- Non-Canonical Peptide Non-Reactivity ([3]; 165-D2C): GT 11
- Non-Canonical Peptide Non-Reactivity ([3]; 165-D3C): GT 11
- Non-Canonical Peptide Non-Reactivity ([3]; 165-F3C): GT 11
- Non-Canonical Peptide Non-Reactivity ([3]; 165-F6C): GT 11
- Non-Canonical Peptide Non-Reactivity ([3]; 165-U3C (so in the source)): GT 11
- Proliferation (luminescent ATP assay), Mean ([3]; T-cell line 165-C4C, 1 μg/mL antigen, Day 66 of culture, 0 μg/mL 1881): 2664
- Proliferation (luminescent ATP assay), Mean ([3]; T-cell line 165-C4C, 3 μg/mL antigen, Day 66 of culture, 0 μg/mL 1881): 2804
- Proliferation (luminescent ATP assay), Mean ([3]; T-cell line 165-C4C, 10 μg/mL antigen, Day 66 of culture, 0 μg/mL 1881): 2311
- Proliferation (luminescent ATP assay), Mean ([3]; T-cell line 165-C7C, 1.25 μg/mL antigen, autologous B-LCL): 346 RLU
- Proliferation (luminescent ATP assay), Mean ([3]; T-cell line 165-C7C, 2.5 μg/mL antigen, autologous B-LCL): 265 RLU
- Proliferation (luminescent ATP assay), Mean ([3]; T-cell line 165-C7C, 5 μg/mL antigen, autologous B-LCL): 255 RLU
- Proliferation (luminescent ATP assay), Mean ([3]; T-cell line 165-C7C, 10 μg/mL antigen, autologous B-LCL): 234 RLU
- Proliferation (luminescent ATP assay), Mean ([3]; T-cell line 165-F3C, 1 μg/mL antigen, Day 77 of culture, 0 μg/mL 1563): 2108
- Proliferation (luminescent ATP assay), Mean ([3]; T-cell line 165-F3C, 3 μg/mL antigen, Day 77 of culture, 0 μg/mL 1563): 2152
- Proliferation (luminescent ATP assay), Mean ([3]; T-cell line 165-F3C, 10 μg/mL antigen, Day 77 of culture, 0 μg/mL 1563): 1652
- Proliferation (luminescent ATP assay), Mean ([3]; T-cell line 165-F6C, 1.25 μg/mL antigen, Day 76 of culture, No Antigen value 517): 406
- Proliferation (luminescent ATP assay), Mean ([3]; T-cell line 165-F6C, 2.5 μg/mL antigen, Day 76 of culture, No Antigen value 517): 426
- Proliferation (luminescent ATP assay), Mean ([3]; T-cell line 165-F6C, 5 μg/mL antigen, Day 76 of culture, No Antigen value 517): 388
- Proliferation (luminescent ATP assay), Mean ([3]; T-cell line 165-F6C, 10 μg/mL antigen, Day 76 of culture, No Antigen value 517): 303
